“Also recorded” adds a separate entry of the source.
Key:
[1] = Encapsulation efficiency of RNA (QUANT-IT RIBOGREEN RNA assay); format: physicochemical
Text: The efficiency of encapsulation of a therapeutic and/or prophylactic agent describes the amount of therapeutic and/or prophylactic agent that is encapsulated or otherwise associated with a nanoparticle composition after preparation, relative to the initial amount provided. The encapsulation efficiency is desirably high (e.g., close to 100%). The encapsulation efficiency may be measured, for example, by comparing the amount of therapeutic and/or prophylactic agent in a solution containing the nanoparticle composition before and after breaking up the nanoparticle composition with one or more organic solvents or detergents. Fluorescence may be used to measure the amount of free therapeutic and/or prophylactic agent (e.g., RNA) in a solution. […]
For nanoparticle compositions including an RNA, a QUANT-IT™ RIBOGREEN® RNA assay (Invitrogen Corporation Carlsbad, CA) can be used to evaluate the encapsulation of an RNA by the nanoparticle composition. […] The fluorescence intensity can be measured using a fluorescence plate reader (Wallac Victor 1420 Multilablel Counter; Perkin Elmer, Waltham, MA) at an excitation wavelength of, for example, about 480 nm and an emission wavelength of, for example, about 520 nm. […]

hEPO mRNA expression [2] = experiment: hEPO levels in non-human primates; format: in vivo
Method: FIG. 10 is a graph showing hEPO levels in non-human primates up to −50 h after administration of a nanoparticle composition containing Compound 4, compared to a composition containing MC3.
The tolerability and efficacy of nanoparticle compositions to non-human primates is evaluated in Cynomolgus monkeys. Monkeys are administered an optimized nanoparticle composition including an mRNA encoding hEPO once weekly for four weeks. The levels of hEPO protein, mRNA, and cytokine profiles are measured using ELISA-based techniques before and 2, 6, 12, 24, 48, 72, and 120 hours after each administration.

[3] = test system: LDLr mRNA / Luc expression; experiment: Expression (AUC) in LDLr−/− mice relative to KL22; format: in vivo; details: Table 7b
[4] = test system: GFP mRNA expression in liver cells; experiment: Mouse liver immunohistochemistry (IHC) of GFP after GFP mRNA LNP; format: in vivo, CD-1 mouse; LDLR knockout mouse; details: i.v. 0.5 mpk; MC3: CD-1 mouse, 6h; Compound 4: LDLR knockout mouse, 8h
Method: FIG. 11 is a pair of images comparing the results of a mouse liver immunohistochemistry (IHC) using mRNA expressing green fluorescent protein (GFP) after administration of nanoparticle compositions containing Compound 4 and MC3.
FIG. 16 is a graph showing GFP levels in the livers of LDLR knockout mice at 30 min to 24 h after intravenous administration of an eGFP RNA in a lipid composition containing Compound 4. The liver GFP levels were determined via IHC. The square markers represent the number of GFP positive cells following administration of a dose of 0.1 mpk of the composition. The circular markers represent the number of GFP positive cells following administration of a dose of 0.5 mpk of the composition.

[5] = Particle size and polydispersity index (Zetasizer Nano ZS); format: physicochemical; details: for PDI: DOPE 40:20:38.5:1.5, Luc mRNA
Summary of the method: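 Particle size and polydispersity index were measured by dynamic light scattering on a Zetasizer Nano ZS in 1×PBS. Zeta potential was measured in 15 mM PBS.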

[6] = test system: luciferase (Luc) mRNA expression; experiment: Luc expression (AUC) in CD-1 mice relative to MC3; format: in vivo; details: for Lipid/MC3 AUC CD-1 mice 0.5 mpk: Table 7b, Luc expression; for Lipid/MC3 Luc CD-1 (mice): Luc expression relative to MC3, CD-1 mice
Summary of the method: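 CD-1 mice dosed at 0.5 mpk with nanoparticle compositions carrying luciferase mRNA; total light flux acquired by whole-body luminescent imaging 6 h after administration. Expression referenced to MC3-containing composition.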

[7] = Lipid levels (clearance) in liver and spleen 48 hours after administration; format: in vivo, rats; details: rat liver, 48 h
Method: Formulations were administered intravenously to rats (n=3 or 6) at a dosage of 0.2 mg/kg or 0.5 mg/kg (mpk) and hEPO levels measured at 3, 6, and 24 hour time points. After the 48 hour time point, livers and spleens were harvested and frozen.
The amount of lipid in the liver and spleen 48 hours after administration of a nanoparticle composition was also measured. […] In contrast, approximately 60% of doses including MC3 or Compound 22 remained in the liver after 48 hours. Less than 3% of the dose remained in the spleen for each composition tested.

hEPO mRNA expression [8] = experiment: Expression of hEPO after intravenous administration to rats; format: in vivo; details: for hEPO expression in rats (FIG. 8): 2 mpk, i.v. (Graph A), in words; for hEPO (pg/mL) 3 hours / hEPO (pg/mL) 6 hours / hEPO (pg/mL) 24 hours: Table 6, rats i.v. 0.2 or 0.5 mg/kg
Method: PBS (phosphate buffered saline) is used as control.
Formulations were prepared according to Table 5 and included mRNA encoding hEPO.
[…] After the 48 hour time point, livers and spleens were harvested and frozen.

LDL-c = experiment: LDL (LDL-c) levels in LDLr−/− mice after mRNA encoding the LDL receptor; format: in vivo, LDLR knockout mice; details: Compound 11 at 0.5 and 1 mpk
rats = experiment: Tolerability / toxicity in rats dosed i.v. with hEPO mRNA LNP; format: in vivo; details: 2 mg/kg dose
[9] = test system: luciferase (Luc) mRNA expression; experiment: Expression of Luc, bioluminescence (total flux) after intravenous administration to mice; format: in vivo
Method: In order to monitor how effectively various nanoparticle compositions deliver therapeutic and/or prophylactic agents to targeted cells, different nanoparticle compositions including a particular therapeutic and/or prophylactic agent (for example, a modified or naturally occurring RNA such as an mRNA) are prepared and administered to rodent populations. Mice are intravenously, intramuscularly, intraarterially, or intratumorally administered a single dose including a nanoparticle composition with a formulation such as those provided in Table 1. In some instances, mice may be made to inhale doses. Dose sizes may range from 0.001 mg/kg to 10 mg/kg, where 10 mg/kg describes a dose including 10 mg of a therapeutic and/or prophylactic agent in a nanoparticle composition for each 1 kg of body mass of the mouse. A control composition including PBS may also be employed.
Upon administration of nanoparticle compositions to mice, dose delivery profiles, dose responses, and toxicity of particular formulations and doses thereof can be measured by enzyme-linked immunosorbent assays (ELISA), bioluminescent imaging, or other methods. For nanoparticle compositions including mRNA, time courses of protein expression can also be evaluated. Samples collected from the rodents for evaluation may include blood, sera, and tissue (for example, muscle tissue from the site of an intramuscular injection and internal tissue); sample collection may involve sacrifice of the animals.
The efficacy of the nanoparticle compositions presented in Tables 1, la, 17-1, 19-1, 20-1 and 21-1 was evaluated with a bioluminescence study. Formulations were administered intravenously to mice (n=6) at a dosage of 0.5 mg/kg (mpk) and bioluminescence measured at 3, 6, and 24 hour time points. The standard MC3 formulation and a PBS control were evaluated for comparison.

[10] = test system: luciferase (Luc) mRNA expression; experiment: Expression of Luc in different organs (liver, lung, spleen, femur) 6 hours after intravenous administration; format: in vivo; details: mice i.v. 0.5 mpk, 0.5 mg/kg
Method: The efficacy of the nanoparticle compositions presented in Tables 1, la, 17-1, 19-1, 20-1 and 21-1 was further evaluated by measuring the expression of modified luciferase in the liver, lung, spleen, and femur upon administration of a given composition. Formulations were administered intravenously to mice (n=3) at a dosage of 0.5 mpk and bioluminescence measured after 6 hours. The standard MC3 formulation and a PBS control were also tested.

CCCCCCCCCCCCN(CCCCCCCCCCCC)CCN1CCN(C(=O)CN(CCCCCCCCCCCC)CCN(CCCCCCCCCCCC)CCCCCCCCCCCC)CC1 [Compound 2, 2-((2-(Didodecylamino)ethyl)(dodecyl)amino)-1-(4-(2-(didodecylamino)ethyl)piperazin-1-yl)ethan-1-one]
EE (%) ([1]; Table 1, marked *: lipid:DSPC:Chol:PEG-DMG 50:10:38.5:1.5): 96%

CCCCCCCCCN(CCCCCCCCC)CCN(CCCCCCCCC)CC(=O)N1CCN(C(=O)CN(CCCCCCCCC)CCCCCCCCC)CC1 [Compound 4, 2-(Dinonylamino)-1-(4-(N-(2-(dinonylamino)ethyl)-N-nonylglycyl)piperazin-1-yl)ethan-1-one]
hEPO expression compared to MC3 (FIG. 10) (hEPO mRNA expression [2]): 3 fold
Lipid/KL22 AUC LDLr−/− mice 0.5 mpk, LDLr [3]: 2.03
GFP protein expression in liver cell types (IHC, FIG. 11) [4]: less protein expression in Kupffer cells
PDI ([5]; Table 1): 0.120
Lipid/MC3 AUC CD-1 mice 0.5 mpk [6]: 3.70
% dose remaining Rat liver (48 h) [7]: 37.82%

CCCCCCCCCCCCN(CCCCCCCCCCCC)CCN(CCCCCCCCCCCC)CC(=O)N1CCN(C(=O)CN(CCCCCCCCCCCC)CCCCCCCCCCCC)CC1 [Compound 11, 2-(Didodecylamino)-1-(4-(N-(2-(didodecylamino)ethyl)-N-dodecylglycyl)piperazin-1-yl)ethan-1-one]
hEPO expression in rats (FIG. 8) (hEPO mRNA expression [8]): comparable to MC3
LDL-c levels in LDLR knockout mice (FIG. 9B) (LDL-c): found to drop
Tolerability / toxicity in rats (FIG. 8) (rats): improved tolerability as compared to KL22
PDI ([5]; Table 1): 0.099
Lipid/MC3 Luc CD-1 (mice) [6]: 1.03

CCCCCCCCCCCCN(CCCCCCCCCCCC)CCN(CCCCCCCCCCCC)CCN1CCN(CCN(CCCCCCCCC)CCCCCCCCC)CC1 [Compound 23, N^1-(2-(4-(2-(Dinonylamino)ethyl)piperazin-1-yl)ethyl)-N^1,N^2,N^2 tridodecylethane-1,2-diamine]
Luc expression in mice compared with MC3 (Table 7a) ([9]; mice, in words): several fold higher
hEPO (pg/mL) 3 hours (hEPO mRNA expression [8]; DOPE formulation of Table 5): 249213 pg/mL
hEPO (pg/mL) 6 hours (hEPO mRNA expression [8]; DOPE formulation of Table 5): 275440 pg/mL
hEPO (pg/mL) 24 hours (hEPO mRNA expression [8]; DOPE formulation of Table 5): 120104 pg/mL
hEPO (pg/mL) 3 hours (hEPO mRNA expression [8]; DSPC formulation of Table 5): 86627 pg/mL
hEPO (pg/mL) 6 hours (hEPO mRNA expression [8]; DSPC formulation of Table 5): 71360 pg/mL
hEPO (pg/mL) 24 hours (hEPO mRNA expression [8]; DSPC formulation of Table 5): 29008 pg/mL
Tolerability / toxicity in rats (FIG. 8) (rats): toxic
PDI ([5]; Table 1): 0.058

CCCCC/C=C\CCCCCN(CCCCC/C=C\CCCCC)CCN1CCN(CCN(CCCCCCCCCCCC)CCN(CCCCCCCCCCCC)CCCCCCCCCCCC)CC1 [Compound 25, N^1-(2-(4-(2-(Di((Z)-dodec-6-en-1-yl)amino)ethyl)piperazin-1-yl)ethyl)-N^1,N^2,N^2-tridodecylethane-1,2-diamine]
Size (nm) ([5]; Table 1, lipid:DOPE:Chol:PEG-DMG 40:20:38.5:1.5, Luc mRNA, MC3 standard formulation): 90.0 nm
EE (%) ([1]; Table 1, DOPE 40:20:38.5:1.5, Luc mRNA): 97.0%

CCCCCCCCCCCCN(CCCCCCCCCCCC)CCN(CCCCCCCCCCCC)CCN1CCN(CCN(CCCCCCCCCCCC)CCCCCCCCCCCC)CC1 [KL22, N1-[2-(didodecylamino)ethyl]-N1,N4,N4-tridodecyl-1,4-piperazinediethanamine, reference compound]
Lipid/KL22 AUC LDLr−/− mice 0.5 mpk, LDLr [3]: 1
hEPO expression in rats (FIG. 8) (hEPO mRNA expression [8]): do not express hEPO in rats
Tolerability / toxicity in rats (FIG. 8) (rats): toxic

CCCCCC=CCC=CCCCCCCCCC(CCCCCCCCC=CCC=CCCCCC)OC(=O)CCCN(C)C (centres unmarked) [MC3, heptatriaconta-6,9,28,31-tetraen-19-yl 4-(dimethylamino)butanoate, reference compound]
Total flux (Luc expression), comparison in words over the time points of the table named ([9]; mice i.v. 0.5 mg/kg, 3, 6, 24 hours, 0.5 mg/kg): highest total flux; also recorded: highest luciferase expression
Lipid/KL22 AUC LDLr−/− mice 0.5 mpk, LDLr [3]: 0.15
hEPO expression at each time point, comparison in words (Table 6) (hEPO mRNA expression [8]; rats i.v., 3, 6, 24 hours): highest hEPO expression
GFP protein expression in liver cell types (IHC, FIG. 11) [4]: observed in both hepatocytes and Kupffer cells
Total flux in organs, comparison in words over the organs of the table named [10]: highest total flux; also recorded: highest expression in each organ
Size (nm) ([5]; Table 20-1): 84.0 nm
Lipid/MC3 Luc CD-1 (mice) [6]: 1
Lipid/MC3 AUC CD-1 mice 0.5 mpk [6]: 1
% dose remaining Rat liver (48 h) [7]: 43.11%

From patent US12396961B2, “Compounds and compositions for intracellular delivery of agents” (ModernaTX, Inc., priority 2015, dated 2025)
